Measurements from PMC6452685, “Lysyl-tRNA synthetase as a drug target in malaria and cryptosporidiosis” (Proceedings of the National Academy of Sciences of the …, 2019).

Assays:
[1] = Intrinsic clearance in mouse liver microsomes; format: in vitro ADME
Procedure: 4.4 Int r ins ic C le ar ance (CLi) experiments […]
HUE50H ). The procedure was carried out as reported prev i ous l y (15). […] Immediately, at time zero, then at 3, 6, 9, 15 and 30 min an aliquot ( 50 μl) o f the i ncubati on mi x ture was remov ed and mi x ed with acetonitrile (100 μl) contai ni ng i nternal s tandard to stop the reaction. […] XLfi t software (I DBS, Guildford UK) was used to cal cul ate the exponenti al decay and consequentl y the rate cons tant (ke-1) from the rati o of peak area of tes t compou nd to i nternal s tandard at each ti me poi nt .
The rate o f i ntri nsi c cl earance (CLi ) of each test compoun d was then cal cul ated usi ng the f ol l owi ng […]
CLi (ml /mi n/g li ver) = ke-1 x V x Microsomal protein yield […]
where V (ml/mg protein) is the incubation volume/mg protein added (0.5) and microsomal protein yield is taken as being 52.5 mg protein per g liver. Verapami l (0. 5 µ M ) w as us ed as a pos i t i v e cont rol to confirm ac ceptable assay performance. […]
Cryopreserved mouse (batch MC539) and huma n (batch HU E50H) hepatocytes were supplied by ThermoFi sher Sci enti fi c, Pai sl ey, UK and Xenotech, LLC, respectively. Cryopreserved hepatocytes were rapidly thawed in a pre-heat ed w at er bat h at 37 °C before ad di ng to 50 ml of pre-warmed CHRM medi a (ThermoFi sher Sci enti fi c, Paisley, UK) and mi xed gentl y. […] […] 5 mi l li on v i abl e cel l s /ml i n s uppl emented W ME. Onl y s us pens i ons whi ch ac hi ev ed >80% pos t-thaw viability were us ed i n ex peri ment s . […]
DMSO and 0.25 million cells/ml. […]

CpKRS [2] = target: T1, CpKRS (Cryptosporidium parvum, UniProt Q5CR27); experiment: CpKRS SAR assay, luciferase ATP consumption (Kinase-Glo); format: biochemical
Procedure: We produced recombinant PfKRS1 (77–583 and 80–583), CpKRS (46-end), and HsKRS (full-length) proteins and developed biochemical assays based on the luciferase ATP consumption assay (Kinase-Glo; Promega) ([16]), which was suitable for the high-throughput screening, and the pyrophosphate generation assay (EnzChek) ([17]) format for kinetic characterization of the enzymes. The activities of recombinant enzymes were analyzed by monitoring only the first stage of the aminoacylation reaction. This reaction is suitable for high-throughput screening campaigns and makes the reaction more amenable for steady-state kinetic studies. By using the EnzChek assay, which monitors the production of pyrophosphate (when coupled with pyrophosphatase), Km values were obtained for PfKRS1, CpKRS, and HsKRS for ATP and L-lysine (Table 1 and SI Appendix, Fig. S1 and Table S1). […] This may be due to structural differences (see below) between the active sites of the parasite and human enzymes. […]
2.7 PfKR S1, CpKRS and HsKR S S AR Ass ay Usin g L ucife r ase ATP C onsumption ( Kinase Glo ®) Inhi bi ti on of KRS acti vity by cl adospori n and other compou nds was assayed i n t he buffered me di um.
Each as s ay w el l was compos ed of b uffer (as des cri bed i n Ta bl e S3), 10 µM l ysi ne and ei ther 8.1 nM PfKRS1, 8.1 nM CpKRS or 6.6 nM HsKRS. […] The react i on w a s initiated by the addition of 2 µM ATP. The plate was incubated with shaking at 90 rpm and 30°C for 120 mi n. […] Maximum and minimum signal controls were included in each reaction plate. […] Analysis and calculation of inhibitors IC50 values were performed using Graphpad® Prism software (GraphPad S oftware, San Diego, CA). […]

CpKRS [3] = target: T1, CpKRS; experiment: Recombinant KRS thermal shift assay, CpKRS; format: binding; settings: 40 µM inhibitor
Procedure: 2.9 Recombin ant KR S thermal shift assays ( UW)
Recombi nant PfKRS1, CpKRS, and HsKRS were di l u ted to 4 µM in assay buffe r c ontaining 20 mM Tris-HC l pH 8, 200 mM NaC l , 5 mM DTT, 5 mM MgC l2 and l i gands (1 mM lysi ne; 40 µM ATP; and 40 µM inhibitors) in various combinations. Ali quot s (10 µl) were added to a 96-well PCR plate and incubated at ambi ent temperature for 15 mi n. SYPRO® Ora n g e dye (I nv itrog en) was di l uted i n ass ay buffer to a 5x concent rat i on a nd 1 0 µl was added to t he P C R pl at e t o bri ng t he fi nal as s ay v ol ume t o 20 µl. The pl at e w as s eal ed and pul s e cent ri fug ed t o cons ol i dat e t he as s ay mix t ure and remov e ai r bu bbl es .
Us i ng a StepOne Pl us RT-PCR thermal cycler (Ap plied Biosystems) to monitor fluorescence at a n excitation/emission wavelength of 300/470-570 nm, the samples were heated from 25° C to 99° C at a ramp rate of .016° C/sec. Graphpa d® P rism software (GraphPad S oftware, San Diego, CA) was used to determine melting temperatures (Tm) us i ng Bol tzmann s i g moi dal analys is .
Table S3. Thermal shift data for compounds with P fKRS1, Cp KRS a nd Hs KRS.
Com poun d Eff ects o n Lys R S M elti ng Tem pe ratu re ( ∆Tm) […]

T1 sequence (Q5CR27 entry or part of it): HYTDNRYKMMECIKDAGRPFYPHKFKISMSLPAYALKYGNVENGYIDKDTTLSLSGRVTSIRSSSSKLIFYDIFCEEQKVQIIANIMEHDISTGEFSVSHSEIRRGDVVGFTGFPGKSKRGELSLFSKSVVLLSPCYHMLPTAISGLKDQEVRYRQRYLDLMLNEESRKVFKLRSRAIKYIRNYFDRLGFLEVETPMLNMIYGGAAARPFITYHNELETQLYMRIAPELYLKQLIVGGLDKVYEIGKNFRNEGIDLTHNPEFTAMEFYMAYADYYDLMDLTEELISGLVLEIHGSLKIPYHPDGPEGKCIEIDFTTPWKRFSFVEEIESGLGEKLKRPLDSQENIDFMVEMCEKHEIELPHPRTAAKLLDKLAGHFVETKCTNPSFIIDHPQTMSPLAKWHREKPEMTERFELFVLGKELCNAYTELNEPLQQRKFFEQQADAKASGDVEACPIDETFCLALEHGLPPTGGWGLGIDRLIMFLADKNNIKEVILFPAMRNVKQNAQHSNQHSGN

Row | SMILES | MLM CLi [1] [mL/min/g] | IC50 (CpKRS [2]) [nM] | ΔTm at 40 µM (CpKRS [3]; ATP + Lysine) [°C] | ΔTm at 40 µM (CpKRS [3]; ATP) [°C] | ΔTm at 40 µM (CpKRS [3]; Lysine) [°C] | ΔTm at 40 µM (CpKRS [3]; no substrate) [°C] | Microsomal stability CLint [1] [mL⋅min^−1⋅g^−1]
1 | C[C@H]1CCC[C@H](C[C@H]2Cc3cc(O)cc(O)c3C(=O)O2)O1 [Compound 1, cladosporin, reference compound] | 20 | 38 | 14 | 0.1 | 19.5 | -0.1 | –
2 | O=C(NCC1(O)CCCCC1)c1cc(=O)c2cc(F)ccc2o1 [Compound 4] | 3 | 8 | 11.8 | 0 | 18.4 | -0.2 | –
3 | O=C(NCC1CCCCC1)c1cc(=O)c2cc(F)ccc2o1 [Compound 3] | 23 | 39 | 0.8 | 0.2 | 1.2 | -0.2 | –
4 | O=C(NCC1(O)CCC(F)(F)CC1)c1cc(=O)c2cc(F)ccc2o1 [Compound 5] | 1 | 130 | 13 | -0.2 | 14.7 | -0.5 | 1
5 | O=C(NCC1CCCCC1)c1cc(=O)c2ccccc2o1 [Compound 2] | > 50 | 22 | 11.7 | 0.7 | 19.3 | 0 | > 50
